In paper PMC3706206 (Chemico-biological interactions, 2011):
Like-named read-outs stand apart in the source and are kept apart here.

Tests used:
[1] = biological target: T1, GST (human placenta, hGSTP1-1) (Homo sapiens, UniProt P09211); experiment: GST substrate assay; type: biochemical; conditions: for substrate for GST (GSH consumption as biomarker): GST 0.1 U/mL, GSH 500 µM, no tyrosinase, up to 60 min at 37 °C
[2] = biological target: T2, human placenta GST (hGSTP1-1) (Homo sapiens, UniProt P09211); experiment: Inhibition of human placenta GST; type: biochemical; conditions: for GST inhibition in the absence and presence of tyrosinase: controls; for GST activity inhibition: quinone formed with tyrosinase; for GST inhibition: 25 µM
SK-MEL-28 melanoma cells [3] = experiment: MTT cell cytotoxicity assay; type: cell-based, human; conditions: for IC50: Homo sapiens, SK-MEL-28, 48 h, read-out: IC50 (48 h)
tyrosinase = experiment: Metabolism by tyrosinase; type: biochemical, Mushroom
SK-MEL-28 melanoma cells [4] = experiment: Effect of modulators on CAPE toxicity; type: cell-based, human; conditions: for MTT assay value, No modulator / MTT assay value, Ethacrynic acid (2 µM) / MTT assay value, MK-571 (10 µM) / MTT assay value, Probenecid (500 µM): 48 h; for MTT assay value, Ethacrynic acid (2 µM): 1 h pretreatment with EA; for MTT assay value, MK-571 (10 µM): 1 h pretreatment with MK-571; for MTT assay value, Probenecid (500 µM): 1 h pretreatment with probenecid; for MTT assay value, modulator alone, Cells (1% DMSO) / MTT assay value, modulator alone, Cells: no CAPE, MK-571 10 µM, probenecid 500 µM, ethacrynic acid 2 µM; for decrease of the IC50 value of CAPE (30 µM): MK-571 10 µM or probenecid 500 µM with CAPE 30 µM
[5] = biological target: T2, human placenta GST (hGSTP1-1); experiment: Reversible/irreversible nature of GST inhibition; type: biochemical; conditions: GST activity after filtering the reaction mixture through 10 K Millipore filter; 25 µM
[6] = biological target: T1, GST (human placenta, hGSTP1-1); experiment: Competitive and non-competitive GST inhibition, Lineweaver-Burk plots, Ki; type: biochemical; conditions: for Mechanism of GST inhibition, with respect to GSH (0.2–1 mM): Inhibition / Mechanism of GST inhibition, with respect to CDNB (0.2–1 mM): Inhibition: CAPE 100 µM, CAPE-quinone 10 µM, CAPE-SG 10 µM, EA 20 µM; for Ki′ with respect to GSH (0.2–1 mM) / Ki′ with respect to CDNB (0.2–1 mM): mixed inhibition; for Ki: apparent Ki
[7] = cited from earlier work
SK-MEL-28 cells = experiment: Annexin V-FITC/propidium iodide apoptosis assay; type: cell-based, human; conditions: for increase of CAPE (15 µM) induced apoptotic cell death / increase of CAPE (30 µM) induced apoptotic cell death: MK-571 10 µM or probenecid 500 µM, 1 h pretreatment, 48 h
SK-MEL-28 melanoma cells [8] = experiment: Mitochondrial membrane potential assay; type: cell-based, human; conditions: for increase of the effect of CAPE (15–30 µM) on mitochondrial membrane potential: MK-571 10 µM or probenecid 500 µM, approximate; for further decrease of mitochondrial membrane potential for CAPE (15 µM) / further decrease of mitochondrial membrane potential for CAPE (30 µM): combination with MK-571 10 µM or probenecid 500 µM, 48 h
[9] = test system: GST in human SK-MEL-28 melanoma cell homogenate; experiment: Inhibition of GST in human SK-MEL-28 melanoma cell homogenate; type: biochemical; conditions: 15–100 µM, in the presence of tyrosinase (10 U/mL)
[10] = 30 µM, 48 h incubation (data not shown)
[11] = read-out: Ki with respect to CDNB (0.2–1 mM), GSH 1 mM
[12] = read-out: Ki with respect to GSH (0.2–1 mM), CDNB 1 mM

T1 sequence (P09211 2-210 limits assumed): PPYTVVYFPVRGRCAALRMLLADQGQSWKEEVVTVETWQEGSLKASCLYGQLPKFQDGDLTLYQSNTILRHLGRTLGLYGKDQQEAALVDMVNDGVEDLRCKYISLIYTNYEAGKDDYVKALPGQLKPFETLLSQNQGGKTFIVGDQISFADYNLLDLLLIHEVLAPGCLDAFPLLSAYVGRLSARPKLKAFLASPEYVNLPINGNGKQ
T2 sequence (P09211 2-210 limits assumed): as above

COc1ccc(O)cc1 [4-HA, 4-hydroxyanisole]
substrate for GST (GSH consumption as biomarker) [1]: none of these tested compounds, including CAPE, 4-HA, tyrosine, and CA, was a substrate for GST
GST inhibition in the absence and presence of tyrosinase [2]: no GST inhibition
cell toxicity (SK-MEL-28 melanoma cells [3]; [10]): 2–27%
IC50 (SK-MEL-28 melanoma cells [3]): 60 µM
substrate for tyrosinase (tyrosinase): substrates for tyrosinase

COC1=CC(=O)C(=O)C=C1 [4-HA-quinone]
GST activity inhibition ([2]; 50 µM): no significant GST inhibition

CCCCS(=N)(=O)CCC(N)C(=O)O (centres unmarked) [BSO]
effect on CAPE induced toxicity in SK-MEL-28 cells (SK-MEL-28 melanoma cells [4]; data not shown): enhanced

O=C(O)/C=C/c1ccc(O)c(O)c1 [CA, caffeic acid]
substrate for GST (GSH consumption as biomarker) [1]: none of these tested compounds, including CAPE, 4-HA, tyrosine, and CA, was a substrate for GST
reversible or irreversible nature of GST inhibition [5]: weak and reversible inhibitors of GST
cell toxicity (SK-MEL-28 melanoma cells [3]; [10]): 2–27%
IC50 (SK-MEL-28 melanoma cells [3]): 2300 µM
substrate for tyrosinase (tyrosinase): substrates for tyrosinase

O=C(O)/C=C/C1=CC(=O)C(=O)C=C1 [CA-quinone]
reversible or irreversible nature of GST inhibition [5]: irreversibly

O=C(/C=C/c1ccc(O)c(O)c1)OCCc1ccccc1 [CAPE, caffeic acid phenethyl ester]
substrate for GST (GSH consumption as biomarker) [1]: none of these tested compounds, including CAPE, 4-HA, tyrosine, and CA, was a substrate for GST
inhibition at 50 µM ([2]; read-out: GST activity inhibition): 13%
reversible or irreversible nature of GST inhibition [5]: weak and reversible inhibitors of GST
Mechanism of GST inhibition, with respect to GSH (0.2–1 mM): Inhibition ([6]; CDNB 1 mM): Mixed
Ki′ with respect to GSH (0.2–1 mM) ([6]; CDNB 1 mM): 2990 µM
Mechanism of GST inhibition, with respect to CDNB (0.2–1 mM): Inhibition ([6]; GSH 1 mM): Mixed
Ki′ with respect to CDNB (0.2–1 mM) ([6]; GSH 1 mM): 451 µM
Ki ([6]; Ki with respect to CDNB (0.2–1 mM), GSH 1 mM): 233 µM
Ki ([6]; Ki with respect to GSH (0.2–1 mM), CDNB 1 mM): 942 µM
cell toxicity (SK-MEL-28 melanoma cells [3]; 15 µM, 48 h incubation): 48%
IC50 (SK-MEL-28 melanoma cells [3]): 15 µM
MTT assay value, No modulator (SK-MEL-28 melanoma cells [4]; CAPE 15 µM): 52 ± 2
MTT assay value, Ethacrynic acid (2 µM) (SK-MEL-28 melanoma cells [4]; CAPE 15 µM): 51 ± 2
MTT assay value, MK-571 (10 µM) (SK-MEL-28 melanoma cells [4]; CAPE 15 µM): 39 ± 3
MTT assay value, Probenecid (500 µM) (SK-MEL-28 melanoma cells [4]; CAPE 15 µM): 31 ± 2
MTT assay value, No modulator (SK-MEL-28 melanoma cells [4]; CAPE 30 µM): 38 ± 2
MTT assay value, Ethacrynic acid (2 µM) (SK-MEL-28 melanoma cells [4]; CAPE 30 µM): 39 ±4
MTT assay value, MK-571 (10 µM) (SK-MEL-28 melanoma cells [4]; CAPE 30 µM): 26 ± 1
MTT assay value, Probenecid (500 µM) (SK-MEL-28 melanoma cells [4]; CAPE 30 µM): 29 ± 1
substrate for tyrosinase (tyrosinase): substrates for tyrosinase
CAPE metabolized by tyrosinase (tyrosinase; after a 60-min incubation): 90%
stability in human plasma [7]: highly stable

O=C(/C=C/C1=CC(=O)C(=O)C=C1)OCCc1ccccc1 [CAPE-quinone]
GST activity inhibition ([2]; 10 µM): 70%
GST inhibition [2]: ≥ 85%
GST activity inhibition ([2]; 50 µM): 93%
reversible or irreversible nature of GST inhibition [5]: irreversible covalent binding
Mechanism of GST inhibition, with respect to GSH (0.2–1 mM): Inhibition ([6]; CDNB 1 mM): Competitive
Mechanism of GST inhibition, with respect to CDNB (0.2–1 mM): Inhibition ([6]; GSH 1 mM): Mixed
Ki′ with respect to CDNB (0.2–1 mM) ([6]; GSH 1 mM): 8.8 µM
Ki [6, 11]: 2.7 µM
Ki [6, 12]: 0.7 µM

O=[N+]([O-])c1ccc(Cl)c([N+](=O)[O-])c1 [CDNB, 1-chloro-2,4-dinitrobenzene]
glutathione consumed per mole of CDNB ([1]; CDNB metabolized by GST, 60 min incubation, positive control): 0.6 mol

C=C(CC)C(=O)c1ccc(OCC(=O)O)c(Cl)c1Cl [Ethacrynic acid, ethacrynic acid]
effect on the IC50 value of CAPE towards melanoma cells (SK-MEL-28 melanoma cells [4]; EA 2 µM): did not affect
MTT assay value, modulator alone, Cells (1% DMSO) (SK-MEL-28 melanoma cells [4]): 96 ± 3
MTT assay value, modulator alone, Cells (SK-MEL-28 melanoma cells [4]): 97 ± 4

CN(C)C(=O)CCSC(SCCC(=O)O)c1cccc(/C=C/c2ccc3ccc(Cl)cc3n2)c1 (centres unmarked) [MK-571]
decrease of the IC50 value of CAPE (30 µM) (SK-MEL-28 melanoma cells [4]): 12%
MTT assay value, modulator alone, Cells (1% DMSO) (SK-MEL-28 melanoma cells [4]): 97 ± 1
MTT assay value, modulator alone, Cells (SK-MEL-28 melanoma cells [4]): 98 ± 3
increase of CAPE (15 µM) induced apoptotic cell death (SK-MEL-28 cells): 3%
increase of CAPE (30 µM) induced apoptotic cell death (SK-MEL-28 cells): 7%
increase of the effect of CAPE (15–30 µM) on mitochondrial membrane potential (SK-MEL-28 melanoma cells [8]): 3–4 fold
further decrease of mitochondrial membrane potential for CAPE (15 µM) (SK-MEL-28 melanoma cells [8]): 10%
further decrease of mitochondrial membrane potential for CAPE (30 µM) (SK-MEL-28 melanoma cells [8]): 29%

CCCN(CCC)S(=O)(=O)c1ccc(C(=O)O)cc1 [probenecid]
decrease of the IC50 value of CAPE (30 µM) (SK-MEL-28 melanoma cells [4]): 9%
MTT assay value, modulator alone, Cells (1% DMSO) (SK-MEL-28 melanoma cells [4]): 99 ± 6
MTT assay value, modulator alone, Cells (SK-MEL-28 melanoma cells [4]): 97 ± 5
increase of CAPE (15 µM) induced apoptotic cell death (SK-MEL-28 cells): 13%
increase of CAPE (30 µM) induced apoptotic cell death (SK-MEL-28 cells): 16%
change of CAPE-induced apoptotic cell death (SK-MEL-28 cells; probenecid 500 µM, CAPE at 15 or 30 µM): approximately doubled
increase of the effect of CAPE (15–30 µM) on mitochondrial membrane potential (SK-MEL-28 melanoma cells [8]): 8–11 fold
further decrease of mitochondrial membrane potential for CAPE (15 µM) (SK-MEL-28 melanoma cells [8]): 56%
further decrease of mitochondrial membrane potential for CAPE (30 µM) (SK-MEL-28 melanoma cells [8]): 68%

N[C@@H](Cc1ccc(O)cc1)C(=O)O [tyrosine, L-tyrosine]
substrate for GST (GSH consumption as biomarker) [1]: none of these tested compounds, including CAPE, 4-HA, tyrosine, and CA, was a substrate for GST
GST inhibition in the absence and presence of tyrosinase [2]: no GST inhibition
GST inhibition in SK-MEL-28 melanoma cell homogenate [9]: did not show any significant GST inhibition
cell toxicity (SK-MEL-28 melanoma cells [3]; [10]): 2–27%
IC50 (SK-MEL-28 melanoma cells [3]): > 5000 µM
substrate for tyrosinase (tyrosinase): substrates for tyrosinase

N[C@@H](CC1=CC(=O)C(=O)C=C1)C(=O)O [tyrosine–quinone]
GST activity inhibition ([2]; 50 µM): no significant GST inhibition

caffeic acid glutathione conjugate [CA-SG conjugate]
reversible or irreversible nature of GST inhibition [5]: reversibly

caffeic acid phenethyl ester glutathione conjugate [CAPE-SG conjugate]
GST inhibition [2]: ≥ 85%
reversible or irreversible nature of GST inhibition [5]: reversible
Mechanism of GST inhibition, with respect to GSH (0.2–1 mM): Inhibition ([6]; CDNB 1 mM): Mixed
Ki′ with respect to GSH (0.2–1 mM) ([6]; CDNB 1 mM): 14 µM
Mechanism of GST inhibition, with respect to CDNB (0.2–1 mM): Inhibition ([6]; GSH 1 mM): Competitive
Ki [6, 11]: 3.1 µM
Ki [6, 12]: 2.6 µM
